Laboratory results: patent publication US20090053721A1, “VOLTAGE-GATED ION CHANNEL MUTANTS FOR USE IN IDENTIFYING ION CHANNEL MODULATING COMPOUNDS” (CARDIOME PHARMA CORP., priority 2007, published 2009)
Structures can show the parent of a compound that is named as a salt.

How the values were obtained:
[1] = target: T1, Kv1.5 V505A mutant channel (Homo sapiens, UniProt P22460, V505A); assay: Voltage-dependence of block (Woodhull fit), V505A Kv1.5; type: cell-based
T1 construct: subcloned as a fragment back into full-length Kv1.5; expressed in transfected cells; host or cells: HEK293, transient transfection
T1 sequence (P22460 whole entry V505A, the tested form may be a part): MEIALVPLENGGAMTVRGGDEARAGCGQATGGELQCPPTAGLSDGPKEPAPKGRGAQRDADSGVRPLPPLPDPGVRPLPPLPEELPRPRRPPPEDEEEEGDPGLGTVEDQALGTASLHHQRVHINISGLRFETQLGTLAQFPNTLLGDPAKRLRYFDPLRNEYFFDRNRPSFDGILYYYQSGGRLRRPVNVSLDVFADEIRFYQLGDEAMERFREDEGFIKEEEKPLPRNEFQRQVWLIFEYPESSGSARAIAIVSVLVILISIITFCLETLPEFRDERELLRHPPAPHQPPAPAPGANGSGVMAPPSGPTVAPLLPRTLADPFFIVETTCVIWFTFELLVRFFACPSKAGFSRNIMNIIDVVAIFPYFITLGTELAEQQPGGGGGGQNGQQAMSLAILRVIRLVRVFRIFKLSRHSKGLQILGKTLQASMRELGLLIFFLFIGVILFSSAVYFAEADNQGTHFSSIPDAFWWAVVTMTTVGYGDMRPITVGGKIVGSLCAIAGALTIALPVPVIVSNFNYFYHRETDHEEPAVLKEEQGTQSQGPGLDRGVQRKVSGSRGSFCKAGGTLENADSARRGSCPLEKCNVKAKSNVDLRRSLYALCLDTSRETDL
Description: Coverslips with adherent cells plated on the surface were placed in a superfusion chamber (volume 300 μl) containing the control bath solution at 22° C. Whole-cell current recording and analysis were carried out using an Axopatch 200B amplifier and pClamp10 software (Axon Instruments, CA, USA). Patch electrodes were pulled from thin-walled borosilicate glass (World Precision Instruments, FL, USA) on a horizontal micropipette puller (Sutter Instruments, CA, USA). […] Analogue capacity compensation and 80% series resistance compensation were used during whole cell measurements. Membrane potentials were not corrected for junction potentials that arise between the pipette and bath solution. For Kv1.5 current recordings, a holding potential of −80 mV was used. Data were sampled at 10-20 kHz and filtered at 5 to 10 kHz. To assess drug block, half-log escalating concentrations of drug were added to the flowing bath solution and current traces were recorded with 400 ms depolarizing pulses to +60 mV at a frequency of 0.1 Hz.
f=[D]/([D]+Kd*e^−δzFE/RT)
where F, R, z and T have their usual meanings, δ represents the fractional electrical distance, i.e., the fraction of the transmembrane electrical field sensed by a single charge at the receptor site. […] The current amplitude (Idrug and Icontrol) was measured at the end of a 400 ms depolarization. […]

[2] = target: T2, Kv1.5 A509G mutant channel (Homo sapiens, UniProt P22460, A509G); assay: Whole-cell patch-clamp block of mutant Kv1.5 current in HEK293 cells; type: cell-based; conditions: 10 μM vernakalant
T2 construct: subcloned as a fragment back into full-length Kv1.5; expressed in transfected cells; host or cells: HEK293, transient transfection
T2 sequence (P22460 whole entry A509G, the tested form may be a part): as the sequence (P22460 whole entry V505A, the tested form may be a part) above, with A505V, A509G counted along it
From the text: (§1) Stable lines of HEK293 cells expressing Kv1.5, or transient transfection of mutant Kv1.5 channels were used in all experiments. Primers to generate mutant channels were synthesized by Integrated DNA Technologies, Inc. (Coralville, Iowa, USA), and mutants were generated using the Stratagene Quikchange kit (Stratagene, Calif., USA). The presence of the mutation was confirmed by DNA sequencing, and because of the size of the WT Kv1.5 clone, only the sequenced region harboring the targeted nucleotides was subcloned as a fragment back into full-length Kv1.5. Transient transfections were performed with HEK 293 cells plated at 20-30% confluency on sterile coverslips in 25 mm Petri dishes one day prior to transfection. 0.1-4 μg of ion channel DNA was incubated with 1 μg of eGFP DNA (to enable detection of transfected cells) and 2 μl of lipofectamine 2000 (Invitrogen) in 100 μl of Opti-MEM. This was added to the cells for overnight incubation after washing the media with 900 μl of MEM with 10% FBS.
(§2) The cells were grown in Minimal Essential Medium (MEM) at 37° C. in an air/5% CO2 incubator. Media contained 10% bovine serum and 0.5 mg/ml geneticin for stable lines. On the day before recording, stably-expressing cells were washed with MEM, treated with trypsin/EGTA for one minute and plated on 25 mm^2 coverslips. All cell culture supplies were obtained from Invitrogen (Mississauga, ON, Canada).
(§3) Control bath solution contained (in mM): 5 KCl, 135 NaCl, 2.8 sodium acetate, 1 MgCl2, 10 HEPES and 1 CaCl2, adjusted to pH 7.4 with NaOH. Patch pipettes contained (in mM): 130 KCl, 5 EGTA, 1 MgCl2, 10 HEPES, 4 Na2ATP, and 0.1 GTP, adjusted to pH 7.2 with KOH. […]
(§4) Coverslips with adherent cells plated on the surface were placed in a superfusion chamber (volume 300 μl) containing the control bath solution at 22° C. […] To assess drug block, half-log escalating concentrations of drug were added to the flowing bath solution and current traces were recorded with 400 ms depolarizing pulses to +60 mV at a frequency of 0.1 Hz. […]

[3] = target: T3, Kv1.5 V481L mutant channel (Homo sapiens, UniProt P22460, V481L); assay: as above; type: cell-based; conditions: 10 μM vernakalant
T3 construct: subcloned as a fragment back into full-length Kv1.5; expressed in transfected cells; host or cells: HEK293, transient transfection
T3 sequence (P22460 whole entry V481L, the tested form may be a part): as the sequence (P22460 whole entry V505A, the tested form may be a part) above, with V481L, A505V counted along it
From the text: as §1, §2, §3, §4

[4] = target: T4, Kv1.5 V512L mutant channel (Homo sapiens, UniProt P22460, V512L); assay: as above; type: cell-based; conditions: 10 μM vernakalant
T4 construct: subcloned as a fragment back into full-length Kv1.5; expressed in transfected cells; host or cells: HEK293, transient transfection
T4 sequence (P22460 whole entry V512L, the tested form may be a part): as the sequence (P22460 whole entry V505A, the tested form may be a part) above, with A505V, V512L counted along it
From the text: as §1, §2, §3, §4

[5] = target: IKs (KvLQT1) (Homo sapiens, UniProt P51787); assay: Sensitivity of IKs channel to vernakalant (unpublished data)
Sequence of IKs (KvLQT1) (P51787 whole entry, the tested form may be a part): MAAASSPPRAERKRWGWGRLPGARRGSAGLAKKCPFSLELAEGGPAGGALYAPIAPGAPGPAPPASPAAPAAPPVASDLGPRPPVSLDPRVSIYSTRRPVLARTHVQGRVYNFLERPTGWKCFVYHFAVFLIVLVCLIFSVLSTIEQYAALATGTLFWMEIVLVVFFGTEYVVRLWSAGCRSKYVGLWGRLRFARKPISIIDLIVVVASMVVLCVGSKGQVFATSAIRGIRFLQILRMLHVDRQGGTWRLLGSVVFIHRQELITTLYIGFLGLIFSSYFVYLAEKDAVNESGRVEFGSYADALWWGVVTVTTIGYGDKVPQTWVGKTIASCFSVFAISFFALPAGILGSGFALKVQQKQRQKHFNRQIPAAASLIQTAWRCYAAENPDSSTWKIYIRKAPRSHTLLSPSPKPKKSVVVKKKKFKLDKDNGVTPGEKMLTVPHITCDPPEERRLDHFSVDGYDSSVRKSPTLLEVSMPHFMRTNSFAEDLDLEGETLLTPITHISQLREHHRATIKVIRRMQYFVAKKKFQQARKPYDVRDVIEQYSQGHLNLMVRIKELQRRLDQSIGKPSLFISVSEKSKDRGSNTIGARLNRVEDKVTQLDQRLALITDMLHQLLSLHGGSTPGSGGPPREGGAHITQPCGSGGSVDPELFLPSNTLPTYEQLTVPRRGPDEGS

[6] = tested on: atrial fibrillation; conditions: intravenous; within 90 min of infusion; phase II and III trials; cited from earlier work

Row | change in electrical distance versus WT [1] | SMILES | Fractional Block ± SEM [2] | Fractional Block ± SEM [3] | Fractional Block ± SEM [4] | sensitivity of IKs channel to drug [5] | overall rate of conversion of AF to sinus rhythm [6] [%]
1 | significant increase in distance | O=C(NCC1CCCCN1)c1cc(OCC(F)(F)F)ccc1OCC(F)(F)F (stereo not drawn) [Flecainide] | – | – | – | – | –
2 | – | COc1ccc(CCO[C@@H]2CCCC[C@H]2N2CC[C@@H](O)C2)cc1OC [Vernakalant, 3-Pyrrolidinol, 1-[(1R,2R)-2-[2-(3,4-dimethoxyphenyl)ethoxy]cyclohexyl]-,hydrochloride, (3R)] | 0.33 ± 0.07 | 0.36 ± 0.03 | 0.56 ± 0.04 | not sensitive | ~52
